Test results as given in article PMC11638965, “Leveraging Dual-Ligase Recruitment to Enhance Protein Degradation via a Heterotrivalent Proteolysis Targeting Chimera” (Journal of the American Chemical Society, 2024).
Values joined by “and” are separate entries in the source; they are usually repeats but may differ in a detail not shown here. Identical values can stand only once.

What was measured:
BRD3 [1] = target: T1, BRD3 (Homo sapiens, UniProt Q15059); experiment: Live cell kinetic HiBiT degradation assay, HiBiT-BRD3 HEK293 cells; format: cell-based; settings: for DC50: HiBiT-BRD3 CRISPR knock-in HEK293 cells, live cell kinetic degradation, 24 h, read-out: Dmax 50 BRD3; for λmax BRD3 (degradation rate): HiBiT-BRD3 knock-in HEK293 cells
T1 construct: HiBiT, is appended to the N-terminus of endogenous BRD2, BRD3, and BRD4; endogenous in cells
Procedure: (§1) HEK293 HiBiT-BRD2 (LgBiT stable), HEK293 HiBiT-BRD3 (LgBiT stable), and HEK293 HiBiT-BRD4 (LgBiT stable) were created using CRISPR/Cas9 to insert at HiBiT tag at the N-terminal genomic loci of BRD2, BRD3, or BRD4 in a cell line stably expressing LgBiT protein as described previously.[23]
(§2) For kinetic degradation experiments, HEK293 HiBiT-BRD2, 3, or 4 (LgBiT stable) cells and HEK293 HiBiT-BRD4 (LgBiT) CRBN KO and VHL KO cells were plated at 20,000 cells/well in DMEM +10% FBS in white 96-well tissue culture plates and allowed to adhere overnight. The next day, media was removed and 90 μL of prewarmed CO2-independent medium (Gibco) containing Endurazine (Promega) at a 1:100 dilution from stock was added. Plates were incubated at 37 °C for 3 h to allow luminescence to equilibrate. A threefold dilution series of each PROTAC at 10x the desired final concentration was prepared (with the amount of DMSO in each treatment condition kept constant). After luminescence equilibration, a preread luminescence measurement was taken (prior to compound addition) to allow for baseline normalization to account for possible plating differences. Cells were then treated with 10 μL of the prepared PROTAC dilution series (in triplicate or quadruplicate). Treated plates were placed in a GloMax Discover luminometer (Promega) prewarmed to 37 °C and luminescence measurements were obtained every 7 min for 24 h. Kinetic degradation plots were obtained by first normalizing time course luminescence readings in each well to the preread measurement, then to the average value of the DMSO only control at each time point. Data was analyzed using GraphPad Prism (version 8) and excel. Dmax values were identified as the lowest luminescence reading in each well. Rate constant values were calculated using a one phase exponential decay Y = (Y0-Plateau) e(K*^X) + Plateau using Prism (Y0 constrained to 1). Dmax 50 values were calculated by plotting Dmax as a function of concentration, then fitting plots using the following equation: [drawing 1] to determine IC50.

BRD2 [2] = target: T2, BRD2 (Homo sapiens, UniProt P25440); experiment: Live cell kinetic HiBiT degradation assay, HiBiT-BRD2 HEK293 cells; format: cell-based; settings: for λmax BRD2 (degradation rate): HiBiT-BRD2 knock-in HEK293 cells
T2 construct: HiBiT, is appended to the N-terminus of endogenous BRD2, BRD3, and BRD4; endogenous in cells
Procedure: as §1, §2

BRD2 [3] = target: T2, BRD2; experiment: Western blot dose-response degradation in HEK293 cells; format: cell-based; settings: 6 h; for DC50: mean ± S.E.M. of three experiments, values marked b mean ± S.D. of two
Procedure: (§3) HEK293 cells were obtained from ATCC. HEK293 was cultured in DMEM supplemented with 10% (v/v) fetal bovine serum (FBS), 1% […] and 1% (v/v) penicillin/streptomycin (pen/strep) at 37 °C, 5% CO2, and 95% humidity.
(§4) HEK293 cells were plated at a density of 5 × 10^5 cells per well of a six well plate a day prior to initiation of the experiment. Compounds were dissolved to a 10 mM concentrated stock solution in DMSO from which the compounds were further diluted to a working concentration range of 1 μM to 100 pM in DMEM and was subsequently added to cells at the initiation of the experiment. An additional vehicle control was added to cells alongside compound treatments. Cells were left to incubate with compound for 6 h at 37 °C, 5% CO2, and 95% humidity. Cells were then subsequently washed twice with PBS before being harvested in RIPA buffer supplemented with protease inhibitor cocktail and Benzonase Nuclease before being store at −20 °C.
(§5) Protein concentration was determined using the BCA assay. Samples were then prepared in LDS buffer containing 5% 1 M DTT and subsequently loaded onto NuPAGE 4–12% Bis-Tris Midi gels, followed by the transfer of the proteins onto nitrocellulose membranes. The membranes were blocked for 1 h prior to incubation with the primary antibodies using 5% Milk TBST. Membranes were incubated at 4 °C in either BRD4(Ab128874), BRD3(Ab50818), BRD2(Ab139690), VHL(CST#68547) and CRBN(CST#71810) primary antibody overnight. Following overnight incubation, the membranes were incubated with complementary IRDye 800CW secondary antibody and a hFAB Rhodamine Anti-Tubulin Primary Antibody (loading control) for 1 h and then imaged with a Bio-Rad imager. All Western blots were analyzed for band intensities using Image Lab (Bio-Rad). The data extracted from these blots were then plotted and analyzed using Prism (v. 10.2.2, GraphPad). Linear regression curve fitting was used to calculate pDC50 values. The standard deviation of the pDC50 was calculated for all compounds that had two independent repeats and the standard error of the mean calculated for all compounds that had three independent repeats. All Western blotting figures were developed in Adobe illustrator.

BRD4^Long = target: T3, BRD4^Long (Homo sapiens, UniProt O60885); experiment: as above; format: cell-based; settings: HEK293 cells, 6 h, Western blot; mean ± S.E.M. of three experiments, values marked b mean ± S.D. of two
T3 construct: Western blot data for BET, CRBN and VHL protein levels; endogenous in cells; host or cells: HEK293 (ATCC)
Procedure: as §3, §4, §5

BRD4^Short = target: T4, BRD4^Short (Homo sapiens, UniProt O60885); experiment: as above; format: cell-based; settings: 6 h, mean ± S.E.M. of three experiments, values marked b mean ± S.D. of two
T4 construct: Western blot data for BET, CRBN and VHL protein levels; endogenous in cells; host or cells: HEK293 (ATCC)
Procedure: as §3, §4, §5

BRD3 [4] = target: T1, BRD3; experiment: as above; format: cell-based; settings: 6 h, mean ± S.E.M. of three experiments, values marked b mean ± S.D. of two
Procedure: as §3, §4, §5

CRBN = CRBN (Homo sapiens, UniProt Q96SW2); experiment: as above; format: cell-based; set-up: Western blot data for BET, CRBN and VHL protein levels; endogenous in cells; host or cells: HEK293 (ATCC); settings: for fold weaker degradation of CRBN compared with aniline tethered matched pair: 31 and 32 compared with 23 and 27, respectively, DC50, HEK293 Western blot; for DC50: HEK293 cells, 6 h, Western blot, mean ± S.E.M. of three experiments, values marked b mean ± S.D. of two
Procedure: as §3, §4, §5

K562 cells = experiment: Cell viability assay (CellTiter-Glo); format: cell-based, human; settings: Homo sapiens; WT K562, 5.12 pM to 10 uM, n = 3 (Table S4)
Procedure: (§6) Cells were seeded in 96-well plates at a cell density of […], and each treatment was performed in biological triplicates. Cell viability was assessed using the CellTiter-Glo assay (CellTiter-Glo Luminescent Cell Viability Assay, Promega G7573) according to manufacturer instructions. Luminescence signal was measured on a Multilabel Plate Reader Platform Victor X3 model 2030 (PerkinElmer). Survival curves and EC50 values were determined using GraphPad Prism v.10.0.3 by fitting a nonlinear regression to the log10-transformed drug concentration and the relative viability after normalization of each data point to the mean luminescence of the lowest drug concentration.

KBM7 cells = experiment: Cell viability assay (CellTiter-Glo); format: cell-based, human; settings: Homo sapiens, KBM-7; WT KBM7, 5.12 pM to 10 uM, n = 3 (Table S4)
Procedure: as §6

Chain of CRBN (Q96SW2 whole entry): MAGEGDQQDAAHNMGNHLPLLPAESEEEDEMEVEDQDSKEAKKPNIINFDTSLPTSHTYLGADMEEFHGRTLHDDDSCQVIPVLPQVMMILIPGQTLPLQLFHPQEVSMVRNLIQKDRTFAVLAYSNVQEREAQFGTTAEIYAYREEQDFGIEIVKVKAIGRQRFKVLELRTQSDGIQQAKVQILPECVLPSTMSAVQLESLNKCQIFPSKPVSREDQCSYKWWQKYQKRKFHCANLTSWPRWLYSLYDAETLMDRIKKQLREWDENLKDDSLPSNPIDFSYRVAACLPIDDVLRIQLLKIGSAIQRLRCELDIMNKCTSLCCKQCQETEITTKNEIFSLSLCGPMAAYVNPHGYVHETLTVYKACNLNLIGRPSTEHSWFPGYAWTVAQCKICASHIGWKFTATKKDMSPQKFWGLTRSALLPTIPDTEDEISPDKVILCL
T2 sequence (P25440 whole entry): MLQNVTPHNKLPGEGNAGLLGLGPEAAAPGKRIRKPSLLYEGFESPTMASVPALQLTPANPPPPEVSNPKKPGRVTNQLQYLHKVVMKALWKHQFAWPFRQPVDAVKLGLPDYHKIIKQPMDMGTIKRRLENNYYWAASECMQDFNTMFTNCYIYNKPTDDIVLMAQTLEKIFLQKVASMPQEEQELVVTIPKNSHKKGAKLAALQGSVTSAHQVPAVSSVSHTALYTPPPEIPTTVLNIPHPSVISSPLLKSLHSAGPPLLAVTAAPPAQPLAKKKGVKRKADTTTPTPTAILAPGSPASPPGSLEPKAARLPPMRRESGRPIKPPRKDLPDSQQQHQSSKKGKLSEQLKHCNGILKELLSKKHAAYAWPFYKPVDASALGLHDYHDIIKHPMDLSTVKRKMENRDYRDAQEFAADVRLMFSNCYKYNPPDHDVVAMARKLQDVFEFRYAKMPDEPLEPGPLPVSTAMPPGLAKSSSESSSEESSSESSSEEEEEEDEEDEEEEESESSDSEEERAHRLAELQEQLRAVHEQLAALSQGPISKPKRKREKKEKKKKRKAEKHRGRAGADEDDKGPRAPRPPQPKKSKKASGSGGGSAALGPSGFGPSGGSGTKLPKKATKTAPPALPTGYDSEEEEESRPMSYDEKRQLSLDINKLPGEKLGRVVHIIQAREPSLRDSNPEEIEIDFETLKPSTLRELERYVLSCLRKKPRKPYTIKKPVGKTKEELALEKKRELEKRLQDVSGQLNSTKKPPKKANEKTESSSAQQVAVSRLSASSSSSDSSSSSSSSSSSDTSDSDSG
T1 sequence (Q15059 whole entry): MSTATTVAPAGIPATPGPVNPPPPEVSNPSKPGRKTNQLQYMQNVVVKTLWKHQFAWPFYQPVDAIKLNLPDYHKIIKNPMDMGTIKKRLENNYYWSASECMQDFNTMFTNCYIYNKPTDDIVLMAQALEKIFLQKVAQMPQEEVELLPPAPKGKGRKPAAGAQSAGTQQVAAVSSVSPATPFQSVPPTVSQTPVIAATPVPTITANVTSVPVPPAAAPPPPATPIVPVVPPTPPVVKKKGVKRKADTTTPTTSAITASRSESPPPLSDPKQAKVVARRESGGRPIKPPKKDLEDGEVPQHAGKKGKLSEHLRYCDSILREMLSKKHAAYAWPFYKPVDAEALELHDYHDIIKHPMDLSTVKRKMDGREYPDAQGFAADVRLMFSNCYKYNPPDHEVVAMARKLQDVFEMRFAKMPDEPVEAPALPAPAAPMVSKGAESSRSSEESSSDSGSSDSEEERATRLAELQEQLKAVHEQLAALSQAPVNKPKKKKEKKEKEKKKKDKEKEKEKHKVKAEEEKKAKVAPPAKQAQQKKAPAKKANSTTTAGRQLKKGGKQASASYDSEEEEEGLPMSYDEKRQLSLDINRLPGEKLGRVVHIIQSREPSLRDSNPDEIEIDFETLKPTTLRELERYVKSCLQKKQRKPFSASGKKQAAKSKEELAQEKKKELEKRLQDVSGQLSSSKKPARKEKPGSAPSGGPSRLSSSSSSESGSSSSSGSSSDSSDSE

SMILES | DC50 (BRD3 [1]) [nM] | λmax BRD3 (degradation rate) (BRD3 [1]) [h⁻¹] | λmax BRD2 (degradation rate) (BRD2 [2]) | DC50 (BRD2 [3]) [nM] | DC50 (BRD4^Long) [nM] | DC50 (BRD4^Short) [nM] | DC50 (BRD3 [4]) [nM] | fold weaker degradation of CRBN compared with aniline tethered matched pair (CRBN) [fold] | DC50 (CRBN) [nM] | EC50 (K562 cells) [nM] | EC50 (KBM7 cells) [nM] | DC50 (BRD2 [2]; HiBiT-BRD2 CRISPR knock-in HEK293 cells, live cell kinetic degradation, 24 h, read-out: Dmax 50 BRD2) [nM] | Dmax (BRD2 [3]) [%] | onset of the hook effect, BRD2 (BRD2 [3]) [µM]
Cc1ncsc1-c1ccc(CNC(=O)[C@@H]2C[C@@H](O)CN2C(=O)[C@@H](NC(=O)COCC(C)(COCCOCCOCCOC(=O)C[C@@H]2N=C(c3ccc(Cl)cc3)c3c(sc(C)c3C)-n3c(C)nnc32)COCCOCCOCCN2CCN(c3cccc4c3C(=O)N(C3CCC(=O)NC3=O)C4=O)CC2)C(C)(C)C)cc1 (mixture of isomers) [AB3029 (31), (17S)-11-((2-(2-(2-(4-(2-(2,6-dioxopiperidin-3-yl)-1,3-dioxoisoindolin-4-yl)piperazin-1-yl)ethoxy)ethoxy)ethoxy)methyl)-17-((2S,4R)-4-hydroxy-2-((4-(4-methylthiazol-5-yl)benzyl)carbamoyl)pyrrolidine-1-carbonyl)-11,18,18-trimethyl-15-oxo-3,6,9,13-tetraoxa-16-azanonadecyl 2-((S)-4-(4-chlorophenyl)-2,3,9-trimethyl-6H-thieno[3,2-f][1,2,4]triazolo[4,3-a][1,4]diazepin-6-yl)acetate] | 6.2 | 2.36 | 1.90 h⁻¹ and 1.9 h⁻¹ | 52 ± 9.4 | 14 ± 3.9 | 15 ± 2.4 | 14 ± 2.9 | 2.9 | 580 ± 240 | 494 | 294 | – | – | –
Cc1ncsc1-c1ccc(CNC(=O)[C@@H]2C[C@@H](O)CN2C(=O)[C@@H](NC(=O)COCC(C)(COCCOCCOCCOC(=O)C[C@@H]2N=C(c3ccc(Cl)cc3)c3c(sc(C)c3C)-n3c(C)nnc32)COCCOCCOCCN2CCN(c3cc4c(cc3F)C(=O)N(C3CCC(=O)NC3=O)C4=O)CC2)C(C)(C)C)cc1 (mixture of isomers) [AB3030 (32), (17S)-11-((2-(2-(2-(4-(2-(2,6-dioxopiperidin-3-yl)-6-fluoro-1,3-dioxoisoindolin-5-yl)piperazin-1-yl)ethoxy)ethoxy)ethoxy)methyl)-17-((2S,4R)-4-hydroxy-2-((4-(4-methylthiazol-5-yl)benzyl)carbamoyl)pyrrolidine-1-carbonyl)-11,18,18-trimethyl-15-oxo-3,6,9,13-tetraoxa-16-azanonadecyl 2-((S)-4-(4-chlorophenyl)-2,3,9-trimethyl-6H-thieno[3,2-f][1,2,4]triazolo[4,3-a][1,4]diazepin-6-yl)acetate] | 1.7 | 2.97 | 2.04 h⁻¹ | 28 ± 7.3 | 7.3 ± 2.1 | 9.4 ± 1.9 | 6.4 ± 1.9 | 3.7 | 730 ± 270 | 192 | 78 | 25 | – | –
Cc1ncsc1-c1ccc(CNC(=O)[C@@H]2C[C@@H](O)CN2C(=O)[C@@H](NC(=O)COCC(C)(COCCOCCOCCNc2cccc3c2C(=O)N(C2CCC(=O)NC2=O)C3=O)COCCOCCOCCOC(=O)C[C@@H]2N=C(c3ccc(Cl)cc3)c3c(sc(C)c3C)-n3c(C)nnc32)C(C)(C)C)cc1 (mixture of isomers) [AB3062 (23), (17S)-11-((2-(2-(2-((2-(2,6-dioxopiperidin-3-yl)-1,3-dioxoisoindolin-4-yl)amino)ethoxy)ethoxy)ethoxy)methyl)-17-((2S,4R)-4-hydroxy-2-((4-(4-methylthiazol-5-yl)benzyl)carbamoyl)pyrrolidine-1-carbonyl)-11,18,18-trimethyl-15-oxo-3,6,9,13-tetraoxa-16-azanonadecyl 2-((S)-4-(4-chlorophenyl)-2,3,9-trimethyl-6H-thieno[3,2-f][1,2,4]triazolo[4,3-a][1,4]diazepin-6-yl)acetate] | 5.7 | 2.06 | 1.12 h⁻¹ | 58 ± 16 | 2.5 ± 0.5 | 11 ± 3.7 | 11 ± 4.6 | – | 200 ± 110 | 212 | 104 | – | – | –
Cc1ncsc1-c1ccc(CNC(=O)[C@@H]2C[C@@H](O)CN2C(=O)[C@@H](NC(=O)COCC(COCCOCCOCCNc2cc3c(cc2F)C(=O)N(C2CCC(=O)NC2=O)C3=O)(COCCOCCOCCOC(=O)C[C@@H]2N=C(c3ccc(Cl)cc3)c3c(sc(C)c3C)-n3c(C)nnc32)COCCOCCOCCOC(=O)C[C@@H]2N=C(c3ccc(Cl)cc3)c3c(sc(C)c3C)-n3c(C)nnc32)C(C)(C)C)cc1 (mixture of isomers) [AB3124 (86)] | – | – | – | 1 ± 0.2 | 2.2 ± 0.1 | 2.9 ± 0.3 | 3.5 ± 0.3 | – | 113 ± 3.2 | – | – | – | ~80 | 1
